Experimental data: US8053197B2, “Methods for detecting and treating autoimmune disorders” (Oregon Health & Science University, priority 2004, dated 2011)

Tested on: Foxp3
Assay: E2 induction of Foxp3 in vitro in purified CD4+CD25− T cells (real-time RT-PCR)
Type: cell-based, mice
Experimental: FIG. 1 is a graph illustrating real-time RT-PCR analysis of Foxp3 expression in vitro in purified (>99%) CD4+CD25− T cells. E2 in combination with TCR stimulation by anti-CD3 antibody for 24 hours induced Foxp3 mRNA approximately 3-fold over levels in untreated cells or in anti-CD3 stimulated cells in the absence of E2. Foxp3 levels are shown relative to the housekeeping gene L32. Error bars are standard deviation of triplicate samples. One representative result of three is shown.
The capacity of E2 to induce Foxp3 expression in vitro in purified (>99%) CD4+CD25− T cells was tested. […]
For real-time RT-PCR analysis, total RNA was prepared using the Total RNeasy kit (Qiagen, Germantown, Md.) and cDNA was prepared using random hexamer primers (Invitrogen, Grand Island, N.Y.). Foxp3 message expression was quantified using the ABI 7000 Real-Time PCR System (Applied Biosystems, Foster City, Calif.). Amplification was performed in a total volume of 25 μl for 40 cycles and products were detected using SYBR Green I dye (Molecular Probes, Eugene, Oreg.). Samples were run in triplicate and relative expression level was determined by normalization to L32 with results presented as relative expression (RE) units. […] FoxP3 was detected with rabbit-anti-FoxP3 antiserum and standard chemiluminescence. […]

For C[C@]12CC[C@@H]3c4ccc(O)cc4CC[C@H]3[C@@H]1CC[C@@H]2O [E2, 17β-estradiol], the “fraction of CD25+ cells over TCR stimulation alone” value was “increased” and the “Foxp3 mRNA induction over levels in untreated cells” value (E2 in combination with anti-CD3 antibody for 24 hours, relative to L32) was “approximately 3 fold”.
